# How the values were obtained:
# barnyardgrass = assay: Test A pre-/postemergence herbicide test; format: in vivo, Echinochloa crus-galli
# How it was run: (§1)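 Seeds sown in loam soil/sand blend received a preemergence directed soil spray of test chemical in non-phytotoxic solvent with surfactant; postemergence plants (2–10 cm, one- to two-leaf stage) were sprayed with the same formulation. After about 10 days in greenhouse, injury was rated visually versus untreated controls, 0 (no effect) to 100 (complete control).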
# pigweed = assay: Test A pre-/postemergence herbicide test; format: in vivo, Amaranthus retroflexus
# How it was run: as §1
# wheat = assay: Test A pre-/postemergence herbicide test; format: in vivo, Triticum aestivum; conditions: Postemergence
# How it was run: as §1
# corn [1] = assay: Test A pre-/postemergence herbicide test; format: in vivo, Zea mays; conditions: Postemergence
# How it was run: as §1
# ryegrass, Italian = assay: Test C pre-/postemergence herbicide test; format: in vivo, Lolium multiflorum
# How it was run: (§2)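 Visual rating, 0 (no effect) to 100 (complete control), versus untreated controls after 13 to 15 days in the greenhouse. Pre: seeds in loam/sand, sprayed at planting. Post: 1- to 4-leaf plants (2 to 18 cm) in peat-based mix. Compounds in non-phytotoxic solvent plus surfactant.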
# wheat (winter wheat) = assay: Test C pre-/postemergence herbicide test; format: in vivo, Triticum aestivum
# How it was run: as §2
# galium = assay: Test C pre-/postemergence herbicide test; format: in vivo, Galium aparine; conditions: Preemergence; for Plant response rating, Galium: 125 g ai/ha, scale 0 to 100; for Plant response rating (scale of 0 to 100), Galium: 250 g ai/ha
# How it was run: as §2
# corn [2] = assay: Test C pre-/postemergence herbicide test; format: in vivo, Zea mays
# How it was run: as §2
# crabgrass, large = assay: Test C pre-/postemergence herbicide test; format: in vivo, Digitaria sanguinalis
# How it was run: as §2
# foxtail, giant = assay: Test C pre-/postemergence herbicide test; format: in vivo, Setaria faberii
# How it was run: as §2
# johnsongrass = assay: Test C pre-/postemergence herbicide test; format: in vivo, Sorghum halepense
# How it was run: as §2
# morningglory = assay: Test C pre-/postemergence herbicide test; format: in vivo, Ipomoea coccinea
# How it was run: as §2
# soybean = assay: Test C pre-/postemergence herbicide test; format: in vivo, Glycine max
# How it was run: as §2
# [3] = Postemergence, 125 g ai/ha, visual rating on 0 to 100 scale (0 no effect, 100 complete control), approx. 10 days
# [4] = Postemergence, 500 g ai/ha, 0 to 100 scale (0 no effect, 100 complete control)
# [5] = Preemergence, 125 g ai/ha, 0 to 100 scale where 0 is no effect and 100 is complete control
# [6] = Preemergence, 500 g ai/ha, visual rating on 0 to 100 scale (0 no effect, 100 complete control)
# [7] = 125 g ai/ha, visual rating on 0 to 100 scale (0 no effect, 100 complete control), approx. 10 days
# [8] = 500 g ai/ha, 0 to 100 scale (0 no effect, 100 complete control)
# [9] = Postemergence, 31 g ai/ha, scale 0 to 100 (0 no effect, 100 complete control)
# [10] = Postemergence, 62 g ai/ha, scale 0 (no effect) to 100 (complete control)
# [11] = Postemergence, 125 g ai/ha, scale 0 to 100 (0 no effect, 100 complete control)
# [12] = Postemergence, 250 g ai/ha, scale 0 to 100 (0 no effect, 100 complete control)
# [13] = Preemergence, 62 g ai/ha, scale 0 to 100 (0 no effect, 100 complete control)
# [14] = Preemergence, 125 g ai/ha, scale 0 to 100
# [15] = 31 g ai/ha, scale 0 to 100, 0 is no effect and 100 is complete control
# [16] = 62 g ai/ha, scale 0 to 100 (0 no effect, 100 complete control)
# [17] = Preemergence, 31 g ai/ha, scale 0 to 100, 0 is no effect and 100 is complete control
smiles,measurement,setting,value
O=C1NCC(c2cccc(C(F)(F)F)c2)C1C(=O)Nc1ccc(F)c(F)c1F (stereo not shown) [Compound 315],"Plant response rating, Barnyardgrass",barnyardgrass; [3],90
same,"Plant response rating, Barnyardgrass",barnyardgrass; [4],90
same,"Plant response rating, Barnyardgrass",barnyardgrass; [5],90
same,Barnyardgrass plant response rating,barnyardgrass; [6],90
same,"Plant response rating, Pigweed",pigweed; [3],30
same,"Plant response rating, Pigweed",pigweed; [4],50
same,"Plant response rating, Pigweed",pigweed; [5],30
same,Pigweed plant response rating,pigweed; [6],30
same,"Plant response rating, Wheat",wheat; [7],60
same,"Plant response rating, Wheat",wheat; [8],70
same,"Plant response rating, Corn",corn [1]; [7],70
same,"Plant response rating, Corn",corn [1]; [8],80
same,"Plant response rating, Ryegrass, Italian","ryegrass, Italian; [9]",0
same,"Plant response rating, Ryegrass, Italian","ryegrass, Italian; [10]",5
same,"Plant response rating, Ryegrass, Italian","ryegrass, Italian; [11]",15
same,"Plant response rating, Ryegrass, Italian","ryegrass, Italian; [12]",45
same,"Ryegrass, Italian plant response rating","ryegrass, Italian; [13]",50
same,"Plant response rating, Ryegrass, Italian","ryegrass, Italian; [14]",50
same,"Plant response rating (scale of 0 to 100), Ryegrass, Italian","ryegrass, Italian; Preemergence, 250 g ai/ha",50
same,"Plant response rating, Wheat",wheat (winter wheat); [9],0
same,"Plant response rating, Wheat",wheat (winter wheat); [10],0
same,"Plant response rating, Wheat",wheat (winter wheat); [11],0
same,"Plant response rating, Wheat",wheat (winter wheat); [12],5
same,Wheat plant response rating,wheat (winter wheat); [13],50
same,"Plant response rating, Wheat",wheat (winter wheat); [14],90
same,"Plant response rating (scale of 0 to 100), Wheat","wheat (winter wheat); Preemergence, 250 g ai/ha",90
same,Galium plant response rating,galium; [15],90
same,Galium plant response rating,galium; [16],80
same,"Plant response rating, Galium",galium,80
same,"Plant response rating (scale of 0 to 100), Galium",galium,90
same,"Plant response rating, Corn",corn [2]; [9],0
same,"Plant response rating, Corn",corn [2]; [10],0
same,"Plant response rating, Corn",corn [2]; [11],10
same,"Plant response rating, Corn",corn [2]; [12],60
same,Corn plant response rating,corn [2]; [17],50
same,Corn plant response rating,corn [2]; [13],80
same,"Plant response rating, Corn",corn [2]; [14],80
same,"Plant response rating (scale of 0 to 100), Corn","corn [2]; Preemergence, 250 g ai/ha",85
same,"Plant response rating, Crabgrass, Large","crabgrass, large; [9]",55
same,"Plant response rating, Crabgrass, Large","crabgrass, large; [10]",65
same,"Plant response rating, Crabgrass, Large","crabgrass, large; [11]",70
same,"Plant response rating, Crabgrass, Large","crabgrass, large; [12]",75
same,"Crabgrass, Large plant response rating","crabgrass, large; [17]",90
same,"Crabgrass, Large plant response rating","crabgrass, large; [13]",95
same,"Plant response rating, Crabgrass, Large","crabgrass, large; [14]",95
same,"Plant response rating (scale of 0 to 100), Crabgrass, Large","crabgrass, large; Preemergence, 250 g ai/ha",98
same,"Plant response rating, Foxtail, Giant","foxtail, giant; [9]",0
same,"Plant response rating, Foxtail, Giant","foxtail, giant; [10]",40
same,"Plant response rating, Foxtail, Giant","foxtail, giant; [11]",85
same,"Plant response rating, Foxtail, Giant","foxtail, giant; [12]",85
same,"Foxtail, Giant plant response rating","foxtail, giant; [17]",90
same,"Foxtail, Giant plant response rating","foxtail, giant; [13]",90
same,"Plant response rating, Foxtail, Giant","foxtail, giant; [14]",95
same,"Plant response rating (scale of 0 to 100), Foxtail, Giant","foxtail, giant; Preemergence, 250 g ai/ha",98
same,"Plant response rating, Johnsongrass",johnsongrass; [9],0
same,"Plant response rating, Johnsongrass",johnsongrass; [10],0
same,"Plant response rating, Johnsongrass",johnsongrass; [11],0
same,"Plant response rating, Johnsongrass",johnsongrass; [12],35
same,Johnsongrass plant response rating,johnsongrass; [17],75
same,Johnsongrass plant response rating,johnsongrass; [13],85
same,"Plant response rating, Johnsongrass",johnsongrass; [14],85
same,"Plant response rating (scale of 0 to 100), Johnsongrass","johnsongrass; Preemergence, 250 g ai/ha",90
same,"Plant response rating, Morningglory",morningglory; [9],25
same,"Plant response rating, Morningglory",morningglory; [10],65
same,"Plant response rating, Morningglory",morningglory; [11],35
same,"Plant response rating, Morningglory",morningglory; [12],10
same,Morningglory plant response rating,morningglory; [17],20
same,Morningglory plant response rating,morningglory; [13],25
same,"Plant response rating, Morningglory",morningglory; [14],35
same,"Plant response rating (scale of 0 to 100), Morningglory","morningglory; Preemergence, 250 g ai/ha",45
same,"Plant response rating, Soybean",soybean; [9],0
same,"Plant response rating, Soybean",soybean; [10],0
same,"Plant response rating, Soybean",soybean; [11],0
same,"Plant response rating, Soybean",soybean; [12],15
same,Soybean plant response rating,soybean; [13],0
same,"Plant response rating, Soybean",soybean; [14],0
same,"Plant response rating (scale of 0 to 100), Soybean","soybean; Preemergence, 250 g ai/ha",0
O=C1NCC(c2cccc(C(F)(F)F)c2)C1C(=O)Nc1cccc(Cl)c1F (stereo not shown) [Compound 316],"Plant response rating, Barnyardgrass",barnyardgrass; [3],80
same,"Plant response rating, Barnyardgrass",barnyardgrass; [4],90
same,"Plant response rating, Barnyardgrass",barnyardgrass; [5],80
same,Barnyardgrass plant response rating,barnyardgrass; [6],90
same,"Plant response rating, Pigweed",pigweed; [3],0
same,"Plant response rating, Pigweed",pigweed; [4],20
same,"Plant response rating, Pigweed",pigweed; [5],20
same,Pigweed plant response rating,pigweed; [6],20
same,"Plant response rating, Wheat",wheat; [7],20
same,"Plant response rating, Wheat",wheat; [8],40
same,"Plant response rating, Corn",corn [1]; [7],60
same,"Plant response rating, Corn",corn [1]; [8],80
same,"Plant response rating, Ryegrass, Italian","ryegrass, Italian; [9]",0
same,"Plant response rating, Ryegrass, Italian","ryegrass, Italian; [10]",0
same,"Plant response rating, Ryegrass, Italian","ryegrass, Italian; [11]",0
same,"Plant response rating, Ryegrass, Italian","ryegrass, Italian; [12]",5
same,"Ryegrass, Italian plant response rating","ryegrass, Italian; [13]",0
same,"Plant response rating, Ryegrass, Italian","ryegrass, Italian; [14]",10
same,"Plant response rating, Wheat",wheat (winter wheat); [9],0
same,"Plant response rating, Wheat",wheat (winter wheat); [10],0
same,"Plant response rating, Wheat",wheat (winter wheat); [11],0
same,"Plant response rating, Wheat",wheat (winter wheat); [12],0
same,Wheat plant response rating,wheat (winter wheat); [13],5
same,"Plant response rating, Wheat",wheat (winter wheat); [14],40
same,Galium plant response rating,galium; [15],0
same,Galium plant response rating,galium; [16],0
same,"Plant response rating, Galium",galium,0
same,"Plant response rating (scale of 0 to 100), Galium",galium,90
same,"Plant response rating, Corn",corn [2]; [9],0
same,"Plant response rating, Corn",corn [2]; [10],0
same,"Plant response rating, Corn",corn [2]; [11],0
same,"Plant response rating, Corn",corn [2]; [12],0
same,Corn plant response rating,corn [2]; [17],15
same,Corn plant response rating,corn [2]; [13],75
same,"Plant response rating, Corn",corn [2]; [14],65
same,"Plant response rating (scale of 0 to 100), Corn","corn [2]; Preemergence, 250 g ai/ha",75
same,"Plant response rating, Crabgrass, Large","crabgrass, large; [9]",0
same,"Plant response rating, Crabgrass, Large","crabgrass, large; [10]",50
same,"Plant response rating, Crabgrass, Large","crabgrass, large; [11]",60
same,"Plant response rating, Crabgrass, Large","crabgrass, large; [12]",70
same,"Crabgrass, Large plant response rating","crabgrass, large; [17]",90
same,"Crabgrass, Large plant response rating","crabgrass, large; [13]",95
same,"Plant response rating, Crabgrass, Large","crabgrass, large; [14]",95
same,"Plant response rating (scale of 0 to 100), Crabgrass, Large","crabgrass, large; Preemergence, 250 g ai/ha",98
same,"Plant response rating, Foxtail, Giant","foxtail, giant; [9]",5
same,"Plant response rating, Foxtail, Giant","foxtail, giant; [10]",5
same,"Plant response rating, Foxtail, Giant","foxtail, giant; [11]",85
same,"Plant response rating, Foxtail, Giant","foxtail, giant; [12]",85
same,"Foxtail, Giant plant response rating","foxtail, giant; [17]",85
same,"Foxtail, Giant plant response rating","foxtail, giant; [13]",90
same,"Plant response rating, Foxtail, Giant","foxtail, giant; [14]",90
same,"Plant response rating (scale of 0 to 100), Foxtail, Giant","foxtail, giant; Preemergence, 250 g ai/ha",95
same,"Plant response rating, Johnsongrass",johnsongrass; [9],0
same,"Plant response rating, Johnsongrass",johnsongrass; [10],0
same,"Plant response rating, Johnsongrass",johnsongrass; [11],0
same,"Plant response rating, Johnsongrass",johnsongrass; [12],0
same,Johnsongrass plant response rating,johnsongrass; [17],50
same,Johnsongrass plant response rating,johnsongrass; [13],75
same,"Plant response rating, Johnsongrass",johnsongrass; [14],75
same,"Plant response rating (scale of 0 to 100), Johnsongrass","johnsongrass; Preemergence, 250 g ai/ha",85
same,"Plant response rating, Morningglory",morningglory; [9],55
same,"Plant response rating, Morningglory",morningglory; [10],0
same,"Plant response rating, Morningglory",morningglory; [11],10
same,"Plant response rating, Morningglory",morningglory; [12],10
same,Morningglory plant response rating,morningglory; [17],0
same,Morningglory plant response rating,morningglory; [13],0
same,"Plant response rating, Morningglory",morningglory; [14],25
same,"Plant response rating (scale of 0 to 100), Morningglory","morningglory; Preemergence, 250 g ai/ha",35
same,"Plant response rating, Soybean",soybean; [9],0
same,"Plant response rating, Soybean",soybean; [10],0
same,"Plant response rating, Soybean",soybean; [11],0
same,"Plant response rating, Soybean",soybean; [12],0
same,Soybean plant response rating,soybean; [13],0
same,"Plant response rating, Soybean",soybean; [14],0
